Some test systems named below: SF-268 CNS; DU-145 prostate; RPMI-8226 leukemia; HT29 colon; MDA-MB-435; HCT-15 colon; UACC-257 melanoma; SNB-19 CNS; OVCAR-8 ovarian; SK-OV-3 ovarian.
Assay in all cases: NCI tumour cell line growth inhibition, 48 h

“And” between values parts separate entries of the source, which are not always exact repeats. Equal entries are not always repeated.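 Cultured in 96-well plates, cells were exposed to test compound for 48 hours across five concentrations. At the GI50, growth is halved. Definition used: TGI = concentration required for complete inhibition of growth.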

As to `O=CN1CCC23CC(O)CCC2C1Cc1cc(Oc2nnnn2-c2ccccc2)cc(O)c13` (stereo not drawn), the TGI in the experiment on SF-268 CNS, in the experiment on DU-145 prostate, with RPMI-8226 leukemia, in the experiment on HT29 colon, with MDA-MB-435 and in the experiment with HCT-15 colon was more than 100 µM in each case. Further, the TGI with UACC-257 melanoma, in the experiment with SNB-19 CNS, in the experiment on OVCAR-8 ovarian and with SK-OV-3 ovarian was more than 100 µM each time.

For the molecule `COc1cc(C2C(=O)C(Cl)N2Nc2nc(C)cc(=O)[nH]2)cc(OC)c1OC` (stereo not drawn), the TGI in the experiment on SF-268 CNS is more than 100 µM; in the experiment on HT29 colon, 66.2 µM; in the experiment with HCT-15 colon it was 31.9 µM; in the experiment on UACC-257 melanoma it was more than 100 µM; in the experiment with SNB-19 CNS, more than 100 µM; in the experiment on OVCAR-8 ovarian, more than 100 µM.

For the molecule `CCOC(=O)C12CC(C)=C(C)CC1CCCc1ccccc12` (stereo not drawn), the TGI with SF-268 CNS was more than 100 µM; in the experiment on DU-145 prostate, more than 100 µM; with RPMI-8226 leukemia, 34.2 µM; with HT29 colon, 36.5 µM; in the experiment on MDA-MB-435 it was 97.2 µM; in the experiment with HCT-15 colon it was 59.8 µM. Further, the TGI in the experiment with UACC-257 melanoma is 46.2 µM; in the experiment with SNB-19 CNS it was 83 µM; with OVCAR-8 ovarian, more than 100 µM; in the experiment with SK-OV-3 ovarian it was more than 100 µM.

For `O=S(=O)(O)c1ccc2c(N=Nc3ccccc3)c(O)ccc2c1`, the TGI in the experiment with SF-268 CNS, in the experiment with DU-145 prostate, in the experiment on RPMI-8226 leukemia, with HT29 colon, in the experiment with MDA-MB-435 and in the experiment with HCT-15 colon was more than 100 µM throughout. Moreover, the TGI with UACC-257 melanoma, in the experiment on SNB-19 CNS, with OVCAR-8 ovarian and with SK-OV-3 ovarian was more than 100 µM in each case.

`C[C@H]1CCC/C=C/[C@@H]2C[C@H](O)C[C@H]2[C@H](O)/C=C/C(=O)O1`: the GI50 in the experiment on SF-268 CNS was less than 0.0103 µM; in the experiment on DU-145 prostate, 0.0785 µM and 0.218 µM and 0.248 µM; in the experiment with RPMI-8226 leukemia it was 0.0345 µM and 0.0737 µM and 0.11 µM; with HT29 colon, 0.0224 µM; with MDA-MB-435 it was < 0.0173 µM and 0.0369 µM and 0.0449 µM; with HCT-15 colon, 0.104 µM. Further, the GI50 is 0.0132 µM with UACC-257 melanoma; 0.0308 µM and 0.134 µM and 0.215 µM in the experiment with SNB-19 CNS; 0.043 µM in the experiment with OVCAR-8 ovarian; 0.0361 µM and 0.0334 µM in the experiment with SK-OV-3 ovarian. Moreover, the TGI in the experiment on SF-268 CNS is more than 63.3 µM; with SNB-19 CNS it was more than 100 µM.

`O=C(CSSCC(=O)OCCS(=O)(=O)Nc1ccc(Br)cc1)OCCS(=O)(=O)Nc1ccc(Br)cc1`: the TGI was 63.2 µM with SF-268 CNS; 83.7 µM with RPMI-8226 leukemia; 31.8 µM with HT29 colon; 48.5 µM in the experiment with HCT-15 colon; 44.6 µM in the experiment on UACC-257 melanoma; more than 100 µM with SNB-19 CNS. The figures for the TGI in the experiment on OVCAR-8 ovarian and in the experiment on SK-OV-3 ovarian were 45.2 µM and 89.8 µM, respectively.

With `COc1cc(/C=C2\N=C(c3ccccc3)N(c3nc4ccc(Sc5ccccc5)cc4[nH]3)C2=O)cc(OC)c1OC`, the TGI with SF-268 CNS is more than 100 µM; in the experiment with DU-145 prostate it was 75.8 µM; in the experiment on RPMI-8226 leukemia, 56.4 µM; in the experiment on HT29 colon it was 48.4 µM; in the experiment with MDA-MB-435 it was 23 µM; with HCT-15 colon, more than 100 µM. For the same molecule, the TGI in the experiment with UACC-257 melanoma was 45.6 µM; in the experiment on SNB-19 CNS, more than 100 µM; in the experiment with OVCAR-8 ovarian it was more than 100 µM; in the experiment on SK-OV-3 ovarian, more than 100 µM.

On to `O=C1CS(=O)(=O)C(c2cccc(Oc3ccccc3)c2)N1C1CC1` (stereo not drawn), for which the TGI in the experiment with SF-268 CNS was more than 100 µM; in the experiment on DU-145 prostate, more than 100 µM; in the experiment on HT29 colon, more than 100 µM; in the experiment on MDA-MB-435, 75.1 µM; in the experiment on HCT-15 colon it was more than 100 µM; with UACC-257 melanoma, more than 100 µM. The TGI in the experiment with SNB-19 CNS is more than 100 µM; with OVCAR-8 ovarian it was more than 100 µM; with SK-OV-3 ovarian, 67.7 µM.

Consider `N=C(N)c1ccc(N=Nc2c(O)ccc3cc4c(N=Nc5ccc(C(=N)N)cc5)c(O)ccc4cc23)cc1`, for which the TGI with SF-268 CNS, in the experiment on DU-145 prostate, in the experiment with RPMI-8226 leukemia, in the experiment with HT29 colon, with MDA-MB-435 and in the experiment on HCT-15 colon was more than 100 µM throughout. The TGI with UACC-257 melanoma, in the experiment with SNB-19 CNS, with OVCAR-8 ovarian and in the experiment on SK-OV-3 ovarian was more than 100 µM in each case.

On to `COc1ccc(N=Nc2c(N)nn(C)c2N)cc1`, for which the TGI in the experiment on SF-268 CNS, in the experiment on RPMI-8226 leukemia, in the experiment on HT29 colon, in the experiment with HCT-15 colon, in the experiment on UACC-257 melanoma and with SNB-19 CNS was more than 100 µM each time. Moreover, the TGI in the experiment on OVCAR-8 ovarian and with SK-OV-3 ovarian was more than 100 µM each time.

Take `COc1cccc(NC(=O)CC(=O)NN2C(=O)/C(=C/c3ccc(N(CCC#N)CCC#N)cc3)N=C2c2cc([N+](=O)[O-])ccc2Cl)c1`: the TGI in the experiment on SF-268 CNS, with RPMI-8226 leukemia, in the experiment with HCT-15 colon, in the experiment with SNB-19 CNS, in the experiment with OVCAR-8 ovarian and in the experiment with SK-OV-3 ovarian was more than 100 µM throughout.

For the molecule `COC(=O)c1ccc2c(c1)sc1nc(-c3ccc(OC)cc3)cn12`, the TGI in the experiment with SF-268 CNS, in the experiment with DU-145 prostate, in the experiment with RPMI-8226 leukemia, with HT29 colon, in the experiment on MDA-MB-435 and in the experiment with HCT-15 colon was more than 100 µM each time. The TGI in the experiment with UACC-257 melanoma, in the experiment on SNB-19 CNS, in the experiment on OVCAR-8 ovarian and with SK-OV-3 ovarian was more than 100 µM each time.

As for `Cn1c(=O)ccc2c(=O)c3ccccc3oc21`, the TGI in the experiment on SF-268 CNS, with DU-145 prostate, with HT29 colon, in the experiment on MDA-MB-435, with HCT-15 colon and with SNB-19 CNS was more than 100 µM in each case. The TGI with OVCAR-8 ovarian and in the experiment on SK-OV-3 ovarian was more than 100 µM in each case.

Turning to `Cc1cc2c(cc1Cl)SC(c1ccccc1O)NS2(=O)=O` (stereo not drawn), the TGI in the experiment on SF-268 CNS, with DU-145 prostate, with HT29 colon, with MDA-MB-435, in the experiment with HCT-15 colon and in the experiment on UACC-257 melanoma was more than 100 µM in each case. Besides, the TGI with SNB-19 CNS, with OVCAR-8 ovarian and in the experiment with SK-OV-3 ovarian was more than 100 µM in each case.

Take `O=c1c(-c2ccccc2)c(SCCN2CCOCC2)n(-c2ccccc2)c(=S)n1-c1ccccc1`: the TGI in the experiment with DU-145 prostate, with RPMI-8226 leukemia, with MDA-MB-435, in the experiment with HCT-15 colon, in the experiment with UACC-257 melanoma and in the experiment with OVCAR-8 ovarian was more than 100 µM each time. In the experiment with SK-OV-3 ovarian, this molecule showed a TGI of more than 100 µM.
